In data set [1] the test system is NO production in LPS-activated BV-2 cells. The experiment in a line: NO production assay (Griess) in LPS-activated BV-2 cells. It is filed as cell-based, murine. Particulars: Mus musculus, read-out: NO Inhibition IC50. Here is the method: (§1) 3-(4,5-dimethylthiazol-2-yl)-2,5-diphenyl-tetrazolium bromide (MTT) assay was performed to evaluate the cytotoxicity of the samples to the microglia. BV2 cells at the density of 4 × 10^4 cells /well were seeded in the 96 well plate and incubated for 24 h. Seeded cells were pre-treated with different concentration of the samples, and LPS (100 ng/ml) activation was performed after 30 min of compound treatment. Treated plate were incubated for 24 h in the incubator and nitric oxide assay and cell viability assay was performed. Treated cell’s conditioned medium was used to evaluate the NO assay, and the attached cells were used to evaluate the cell viability assay. 50 µL of conditioned medium (CM) from treated cells were transferred to a new 96 well plate for NO assay. This CM was mixed with the equal volume of the mixture of Gries reagent ((1% sulfanilamide and 0.1% N-1-napthylethylenediamine dihydrochloride). NaNO2 was used as standard and the colorimetric change were evidenced by measuring its OD at 540 nm in a microplate reader. The cells in the plate were incubated for 1 h with MTT solution making it the final concentration of […]. Blue stained cells were incubated with 200 ul of DMSO and the solution get changed to purple/formazan color and it was observed by measuring the absorbance at 570 nm in a microplate reader.NG-mono-methyl-L-arginine (L-NMMA), a well-known nitric oxide synthase (NOS) inhibitor, was used as a positive control.
(Nitrite, measured by Griess reagent, commonly stands in for NO production.)

The nature of the next data set: MTT cell viability assay. The class given is cell-based, murine. The following applies: mouse, BV-2 microglia cells (LPS-activated), mean ± SD; for viability at 24 h, 1 µM: 1 μM compound; for viability at 24 h, 5 µM: 5 μM compound, % of LPS. Here is the method:
as §1
In general terms: Tetrazolium dyes change colour on reduction, which living cells bring about.

For the next data set, the target named is GSK3β (Homo sapiens, UniProt P49841). The data set is described as follows: GSK3β radiolabelled kinase assay (% residual activity, IC50, ATP competition). It is filed as biochemical. The following applies: for remaining activity at 10 µM: at 10 μM compound.
Chain of GSK3β (P49841 whole entry): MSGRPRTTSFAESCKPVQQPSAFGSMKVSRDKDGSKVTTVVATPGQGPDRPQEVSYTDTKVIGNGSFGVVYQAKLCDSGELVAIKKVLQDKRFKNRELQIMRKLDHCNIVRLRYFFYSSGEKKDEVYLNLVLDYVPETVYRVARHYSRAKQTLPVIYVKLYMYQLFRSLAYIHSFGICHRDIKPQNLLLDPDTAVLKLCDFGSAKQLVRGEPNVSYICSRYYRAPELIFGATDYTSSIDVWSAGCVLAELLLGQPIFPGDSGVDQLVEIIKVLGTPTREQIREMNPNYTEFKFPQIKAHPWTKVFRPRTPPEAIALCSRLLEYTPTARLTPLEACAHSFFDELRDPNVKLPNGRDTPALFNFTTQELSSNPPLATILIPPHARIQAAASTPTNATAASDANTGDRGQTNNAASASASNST
Another data set addresses T1, EIF2AK1 (Homo sapiens, UniProt Q9BQI3).
T1 construct: purchased Reaction Biology Corp
The data set is described as follows: Kinase panel assay (radiolabelled). It is filed as biochemical. The following applies: control GSK-2606414. Here is the method:
Every inhibitory activity of tested compounds was measured by radiolabelled method of Reaction Biology Corp). The radiolabelled ATP ([γ-^33P] ATP) replaced a substrate with ^33P-phosphorylated substrate so that the activity of a kinase was measured from the radiolabelled phosphorylated substrate. Kinase panel assay was tested at 30 μM testing compounds with an ATP concentration of 10 μM and a substrate concentration of 10 μM. % Residual activity against GSK3β was measured at 10 uM compounds 1 and 2. […] Curve fits of control compounds were performed where the enzyme activities at the highest concentration of compounds were less than 65%. The concentration of DMSO was controlled and raw data, % kinase activity was calculated relative to DMSO controls.

Where two headings read alike, the source gives them in different places.

T1 sequence (Q9BQI3 whole entry): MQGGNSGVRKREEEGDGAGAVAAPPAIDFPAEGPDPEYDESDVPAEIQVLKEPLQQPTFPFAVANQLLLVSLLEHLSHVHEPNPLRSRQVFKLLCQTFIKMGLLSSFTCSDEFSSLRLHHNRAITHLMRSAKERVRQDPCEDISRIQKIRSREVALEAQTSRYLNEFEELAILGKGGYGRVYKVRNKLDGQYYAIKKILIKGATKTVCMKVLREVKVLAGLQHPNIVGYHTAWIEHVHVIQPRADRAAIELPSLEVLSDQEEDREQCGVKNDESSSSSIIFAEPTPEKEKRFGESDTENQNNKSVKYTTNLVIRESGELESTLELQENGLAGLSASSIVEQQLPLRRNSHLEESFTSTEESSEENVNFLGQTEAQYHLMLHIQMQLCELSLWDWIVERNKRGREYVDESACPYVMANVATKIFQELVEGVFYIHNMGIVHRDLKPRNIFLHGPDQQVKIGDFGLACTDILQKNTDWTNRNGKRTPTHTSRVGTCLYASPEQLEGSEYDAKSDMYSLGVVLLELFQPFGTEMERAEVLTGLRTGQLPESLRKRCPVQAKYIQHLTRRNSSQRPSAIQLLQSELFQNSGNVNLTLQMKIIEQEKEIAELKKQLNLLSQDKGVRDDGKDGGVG

In general, IC50 refers to the concentration that gives 50% inhibition. In general, viability refers to a read-out of living cells in per cent, often relative to untreated cells. In the case of `[H]/N=C(/NC)NCCC[C@H](N)C(=O)O` [L-NMMA, NG-mono-methyl-L-arginine, reference compound], the IC50 in data set [1] came to 19600 ± 420 nM. For the same compound, in “MTT cell viability assay”, the viability at 24 h, 1 µM stood at 101 ± 1.6% and the viability at 24 h, 5 µM came to 105 ± 4%.
For orientation: remaining activity means the signal under treatment as a percentage of the control signal. `C#CCC1COC2(C=CC(=O)C=C2)N(c2ccccc2)C1=O` (stereo not drawn) [compound 7, 5-Phenyl-3-(prop-2-yn-1-yl)-1-oxa-5-azaspiro[5.5]undeca-7,10-diene-4,9-dione]: the remaining activity at 10 µM on GSK3β was determined as 55.7 ± 8.4%. For the same compound, the IC50 in data set [1] came out at 680 ± 70 nM. Further, the viability at 24 h, 5 µM in the data set “MTT cell viability assay” turned out to be 100 ± 24%.
In turn, `Cn1cc(-c2ccc3c(c2)CCN3C(=O)Cc2cccc(C(F)(F)F)c2)c2c(N)ncnc21` [GSK-2606414, reference compound] showed a concentration for half-maximal inhibition (IC50) at EIF2AK1 of 106 nM.
For the compound `O=C1C=CC2(C=C1)OCC(Cc1cn(-c3ccc(F)cc3)nn1)C(=O)N2c1ccccc1` (stereo not drawn) [2c, 3-((1-(4-Fluorophenyl)-1H-1,2,3-triazol-4-yl)methyl)-5-phenyl-1-oxa-5-azaspiro[5.5]undeca-7,10-diene-4,9-dione], the remaining activity at 10 µM on GSK3β turned out to be 84.8 ± 5.3%. Further, the IC50 in data set [1] is 780 ± 40 nM. In addition, the viability at 24 h, 5 µM in the data set “MTT cell viability assay” was found to be 109 ± 13%.
On to `O=C1C=CC2(C=C1)OCC(Cc1cn(-c3ccc(Br)cc3)nn1)C(=O)N2c1ccccc1` (stereo not drawn) [2e, 3-((1-(4-Bromophenyl)-1H-1,2,3-triazol-4-yl)methyl)-5-phenyl-1-oxa-5-azaspiro[5.5]undeca-7,10-diene-4,9-dione], for which the remaining activity at 10 µM on GSK3β came to 69.6 ± 5.1%. For the same compound, in data set [1], the IC50 was found to be 670 ± 10 nM. For the same compound, in “MTT cell viability assay”, the viability at 24 h, 1 µM is 106 ± 1.28% and the viability at 24 h, 5 µM came out at 93 ± 6%.
On to `COc1ccc(-n2cc(CC3COC4(C=CC(=O)C=C4)N(c4ccccc4)C3=O)nn2)cc1` (stereo not drawn) [2h, 3-((1-(4-Methoxyphenyl)-1H-1,2,3-triazol-4-yl)methyl)-5-phenyl-1-oxa-5-azaspiro[5.5]undeca-7,10-diene-4,9-dione], for which, at GSK3β, the remaining activity at 10 µM came to 112 ± 4.5%. In addition, in data set [1], the IC50 came out at 760 ± 10 nM. The viability at 24 h, 5 µM in the data set “MTT cell viability assay” is 124 ± 7%.
As for `CC(=O)Nc1ccc(-n2cc(CC3COC4(C=CC(=O)C=C4)N(c4ccccc4)C3=O)nn2)cc1` (stereo not drawn) [2l, N-(4-(4-((4,9-Dioxo-5-phenyl-1-oxa-5-azaspiro[5.5]undeca-7,10-dien-3-yl)methyl)-1H-1,2,3-triazol-1-yl)phenyl)acetamide], on GSK3β, the remaining activity at 10 µM is 122 ± 2.3%. Also, the IC50 in data set [1] came to 930 ± 60 nM. For the same compound, the viability at 24 h, 5 µM in “MTT cell viability assay” is 109 ± 16%.
For `CSc1ccc(-n2cc(CC3COC4(C=CC(=O)C=C4)N(c4ccccc4)C3=O)nn2)cc1` (stereo not drawn) [2i, 3-((1-(4-(Methylthio)phenyl)-1H-1,2,3-triazol-4-yl)methyl)-5-phenyl-1-oxa-5-azaspiro[5.5]undeca-7,10-diene-4,9-dione] the same measures were 66.9 ± 11.4%, 980 ± 40 nM and 121 ± 2%.
On the same counts, the results for `O=C1C=CC2(C=C1)OCC(Cc1cn(-c3ccc(S(=O)(=O)C(F)(F)F)cc3)nn1)C(=O)N2c1ccccc1` (stereo not drawn) [2k, 5-Phenyl-3-((1-(4-((trifluoromethyl)sulfonyl)phenyl)-1H-1,2,3-triazol-4-yl)methyl)-1-oxa-5-azaspiro[5.5]undeca-7,10-diene-4,9-dione] are 35.1 ± 4.2%, 770 ± 60 nM and 71 ± 3%.
For the compound `O=C1C=CC2(C=C1)OCC(Cc1ccccc1)C(=O)N2c1ccccc1` (stereo not drawn) [1a], at GSK3β, the remaining activity at 10 µM came out at 85.8 ± 16.1%. For the same compound, the IC50 in data set [1] is 540 nM. Besides, in “MTT cell viability assay”, the viability at 24 h, 1 µM worked out at 95 ± 6.87% and the viability at 24 h, 5 µM stood at 74 ± 7%.
For `COc1cc(OC)cc(-n2cc(CC3COC4(C=CC(=O)C=C4)N(c4ccccc4)C3=O)nn2)c1` (stereo not drawn) [2m, 3-((1-(3,5-B=Dimethoxyphenyl)-1H-1,2,3-triazol-4-yl)methyl)-5-phenyl-1-oxa-5-azaspiro[5.5]undeca-7,10-diene-4,9-dione], on GSK3β, the remaining activity at 10 µM was found to be 114 ± 4.5%. For the same compound, the IC50 in data set [1] was 1220 ± 300 nM. The viability at 24 h, 5 µM in the data set “MTT cell viability assay” was determined as 108 ± 5%.
`O=C1C=CC2(C=C1)OCC(Cc1cn(-c3ccc4c(c3)OCO4)nn1)C(=O)N2c1ccccc1` (stereo not drawn) [2o, 3-((1-(benzo[d][1,3]dioxol-5-yl)-1H-1,2,3-triazol-4-yl)methyl)-5-phenyl-1-oxa-5-azaspiro[5.5]undeca-7,10-diene-4,9-dione]: the remaining activity at 10 µM at GSK3β is 75 ± 0.7%. For the same compound, the IC50 in data set [1] amounted to 740 ± 80 nM. In addition, the viability at 24 h, 5 µM in the data set “MTT cell viability assay” is 89 ± 8%.
On the same counts, the results for `O=C1C=CC2(C=C1)OCC(Cc1cn(-c3ccc(C(F)(F)F)cc3)nn1)C(=O)N2c1ccccc1` (stereo not drawn) [2f, 5-Phenyl-3-((1-(4-(trifluoromethyl)phenyl)-1H-1,2,3-triazol-4-yl)methyl)-1-oxa-5-azaspiro[5.5]undeca-7,10-diene-4,9-dione] are 96.3 ± 16.5%, 770 ± 20 nM and 115 ± 3%.
Consider `O=C1C=CC2(C=C1)OCC(Cc1cn(-c3cccc(Cc4ccccc4)c3)nn1)C(=O)N2c1ccccc1` (stereo not drawn) [2j, 3-((1-(3-Benzylphenyl)-1H-1,2,3-triazol-4-yl)methyl)-5-phenyl-1-oxa-5-azaspiro[5.5]undeca-7,10-diene-4,9-dione], for which the IC50 at GSK3β (ATP 1 µM, 10-dose, threefold dilution from 10 μM, read-out: IC50 of GSK3β activity) is 2650 nM; at GSK3β (ATP 10 µM, 10-dose, threefold dilution from 10 μM, read-out: IC50 of GSK3β activity), 3530 nM; on GSK3β (ATP 50 µM, 10-dose, threefold dilution from 10 μM, read-out: IC50 of GSK3β activity), 3790 nM; on GSK3β (ATP 100 µM, 10-dose, threefold dilution from 10 μM, read-out: IC50 of GSK3β activity), 4040 nM; at GSK3β (ATP 200 µM, 10-dose, threefold dilution from 10 μM, read-out: IC50 of GSK3β activity), 3450 nM; in data set [1] it was 630 ± 10 nM. For the same compound, at GSK3β (ATP 1, 10, 50, 100 and 200 µM), the “dependence of GSK3β IC50 on ATP concentration” value was “retained its IC50 activity regardless of the ATP concentration”. Further, on GSK3β, the remaining activity at 10 µM was found to be 10.5 ± 2%. In addition, the viability at 24 h, 1 µM in “MTT cell viability assay” is 107 ± 6.88%. For the same compound, the viability at 24 h, 5 µM in “MTT cell viability assay” worked out at 74 ± 4%.
Turning to `Cc1cc(=O)oc2cc(-n3cc(CC4COC5(C=CC(=O)C=C5)N(c5ccccc5)C4=O)nn3)ccc12` (stereo not drawn) [2p, 3-((1-(4-methyl-2-oxo-2H-chromen-7-yl)-1H-1,2,3-triazol-4-yl)methyl)-5-phenyl-1-oxa-5-azaspiro[5.5]undeca-7,10-diene-4,9-dione], the IC50 on GSK3β (ATP 1 μM (Table 2), read-out: IC50 on GSK3β (converted)) was 11400 nM; in data set [1] it was 850 ± 190 nM. On GSK3β, the remaining activity at 10 µM stood at 35.7 ± 3.7%. Besides, the viability at 24 h, 5 µM in “MTT cell viability assay” was 97 ± 2%.
With `O=C1C=CC2(C=C1)OCC(Cc1cn(-c3cccnc3)nn1)C(=O)N2c1ccccc1` (stereo not drawn) [2b, 5-Phenyl-3-((1-(pyridin-3-yl)-1H-1,2,3-triazol-4-yl)methyl)-1-oxa-5-azaspiro[5.5]undeca-7,10-diene-4,9-dione], the remaining activity at 10 µM at GSK3β turned out to be 87.5 ± 0.6%. The IC50 in data set [1] was determined as 870 ± 110 nM. Moreover, the viability at 24 h, 5 µM in the data set “MTT cell viability assay” was 120 ± 11%.
For `COc1cc(-n2cc(CC3COC4(C=CC(=O)C=C4)N(c4ccccc4)C3=O)nn2)ccc1F` (stereo not drawn) [2n, 3-((1-(4-fluoro-3-methoxyphenyl)-1H-1,2,3-triazol-4-yl)methyl)-5-phenyl-1-oxa-5-azaspiro[5.5]undeca-7,10-diene-4,9-dione] the same measures were 85.6 ± 2%, 850 ± 40 nM and 102 ± 8%.
On the same counts, the results for `O=C1C=CC2(C=C1)OCC(Cc1cn(C34CC5CC(CC(C5)C3)C4)nn1)C(=O)N2c1ccccc1` [2q, 3-((1-((3R,5S)-adamantan-1-yl)-1H-1,2,3-triazol-4-yl)methyl)-5-phenyl-1-oxa-5-azaspiro[5.5]undeca-7,10-diene-4,9-dione] are 71.6 ± 1.4%, 780 ± 100 nM and 87 ± 7%.
Consider `O=C1C=CC2(C=C1)OCC(Cc1cn(Cc3ccccc3)nn1)C(=O)N2c1ccccc1` (stereo not drawn) [2r, 3-((1-Benzyl-1H-1,2,3-triazol-4-yl)methyl)-5-phenyl-1-oxa-5-azaspiro[5.5]undeca-7,10-diene-4,9-dione], for which the remaining activity at 10 µM on GSK3β amounted to 61.7 ± 13.8%. Moreover, the IC50 in data set [1] was 650 ± 60 nM. For the same compound, in “MTT cell viability assay”, the viability at 24 h, 1 µM was determined as 101.3 ± 0.67% and the viability at 24 h, 5 µM worked out at 75 ± 11%.
Take `N#Cc1cccc(-n2cc(CC3COC4(C=CC(=O)C=C4)N(c4ccccc4)C3=O)nn2)c1` (stereo not drawn) [2g, 3-(4-((4,9-Dioxo-5-phenyl-1-oxa-5-azaspiro[5.5]undeca-7,10-dien-3-yl)methyl)-1H-1,2,3-triazol-1-yl)benzonitrile]: the remaining activity at 10 µM on GSK3β amounted to 41.8 ± 0.9%. The IC50 in data set [1] came out at 800 ± 130 nM. For the same compound, in “MTT cell viability assay”, the viability at 24 h, 5 µM was 128 ± 17%.

For the origin of these results see publication PMC7719162, “Positioning of an unprecedented spiro[5.5]undeca ring system into kinase inhibitor space” (Scientific Reports, 2020).
